Source: ChEMBL document CHEMBL3997806, “Inhibition of veratridine-induced delayed inactivation of the voltage-sensitive sodium channel by synthetic analogs of crambescin B” (Bioorg Med Chem Lett, 2017)
Active and inactive are the calls of the source. The rule behind the calls is not given here.

Experiments:
[1] = biological target: Sodium channel protein type 8 subunit alpha (Homo sapiens) (UniProt Q9UQD0); conditions: HEK-293T, 30 nM
Description: Antagonist activity at human Nav1.6 expressed in HEK293T cells assessed as inhibition of VTD-induced tail current at 30 nM at holding potential of -100mV by whole cell patch clamp method relative to control

[2] = biological target: Sodium channel protein type 9 subunit alpha (Homo sapiens) (UniProt Q15858); conditions: HEK-293T, 30 nM
Description: Antagonist activity at human Nav1.7 expressed in HEK293T cells assessed as inhibition of VTD-induced tail current at 30 nM at holding potential of -100mV by whole cell patch clamp method relative to control

[3] = biological target: Sodium channel protein type 9 subunit alpha (Homo sapiens) (UniProt Q15858); conditions: HEK-293T, 30 nM; remark: listed apart in the source
Description: Antagonist activity at human Nav1.7 expressed in HEK293T cells assessed as inhibition of VTD-induced sustained current at 30 nM by whole cell patch clamp method relative to control

[4] = species on record: Mus musculus; experiment: Antagonist activity at VSSC in mouse Neuro2a cells assessed as inhibition of peak current at holding potential of -100mV at 100 nM by patch-clamp method; format: cell-based
[5] = biological target: Sodium channel protein type 9 subunit alpha (Homo sapiens) (UniProt Q15858); conditions: HEK-293T, 30 nM; remark: listed apart in the source
Description: Antagonist activity at human Nav1.7 expressed in HEK293T cells assessed as inhibition of VTD-induced peak current at 30 nM by whole cell patch clamp method relative to control

[6] = biological target: Sodium channel protein type 8 subunit alpha (Homo sapiens) (UniProt Q9UQD0); conditions: HEK-293T, 30 nM; remark: listed apart in the source
Description: Antagonist activity at human Nav1.6 expressed in HEK293T cells assessed as inhibition of VTD-induced sustained current at 30 nM by whole cell patch clamp method relative to control

[7] = biological target: Sodium channel protein type 8 subunit alpha (Homo sapiens) (UniProt Q9UQD0); conditions: HEK-293T, 30 nM; remark: listed apart in the source
Description: Antagonist activity at human Nav1.6 expressed in HEK293T cells assessed as inhibition of VTD-induced peak current at 30 nM by whole cell patch clamp method relative to control

[8] = biological target: T1, Sodium channel protein type 2 subunit alpha (Homo sapiens, UniProt Q99250); experiment: Antagonist activity at human Nav1.2 expressed in HEK293T cells assessed as inhibition of VTD-induced peak current up to 10 nM by whole cell patch clamp method relative to control; format: cell-based; conditions: HEK-293T
[9] = biological target: T1, Sodium channel protein type 2 subunit alpha; experiment: Antagonist activity at human Nav1.2 expressed in HEK293T cells assessed as inhibition of VTD-induced sustained current by whole cell patch clamp method relative to control; format: cell-based, HEK-293T; conditions: for inhibition: HEK-293T
[10] = biological target: T1, Sodium channel protein type 2 subunit alpha; experiment: Inhibition of Nav1.2 (unknown origin) by cell based assay
[11] = biological target: T1, Sodium channel protein type 2 subunit alpha; experiment: Antagonist activity at human Nav1.2 expressed in HEK293T cells assessed as inhibition of VTD-induced tail current by whole cell patch clamp method relative to control; format: cell-based, HEK-293T; conditions: for inhibition: HEK-293T
[12] = biological target: Sodium channel protein type 9 subunit alpha (Homo sapiens) (UniProt Q15858); experiment: Antagonist activity at human Nav1.7 expressed in HEK293T cells assessed as inhibition of VTD-induced peak current at 1 uM by whole cell patch clamp method relative to control; format: cell-based; conditions: HEK-293T
[13] = biological target: Sodium channel protein type 8 subunit alpha (Homo sapiens) (UniProt Q9UQD0); experiment: Antagonist activity at human Nav1.6 expressed in HEK293T cells assessed as inhibition of VTD-induced peak current at 1 uM by whole cell patch clamp method relative to control; format: cell-based; conditions: HEK-293T
[14] = biological target: Sodium channel protein type 8 subunit alpha (Homo sapiens) (UniProt Q9UQD0); experiment: Antagonist activity at human Nav1.6 expressed in HEK293T cells assessed as inhibition of VTD-induced tail current at 1 uM at holding potential of -100mV by whole cell patch clamp method relative to control; format: cell-based; conditions: HEK-293T
[15] = biological target: Sodium channel protein type 9 subunit alpha (Homo sapiens) (UniProt Q15858); experiment: Antagonist activity at human Nav1.7 expressed in HEK293T cells assessed as inhibition of VTD-induced sustained current at 1 uM by whole cell patch clamp method relative to control; format: cell-based; conditions: HEK-293T
[16] = biological target: Sodium channel protein type 8 subunit alpha (Homo sapiens) (UniProt Q9UQD0); experiment: Antagonist activity at human Nav1.6 expressed in HEK293T cells assessed as inhibition of VTD-induced sustained current at 1 uM by whole cell patch clamp method relative to control; format: cell-based; conditions: HEK-293T
[17] = biological target: Sodium channel protein type 9 subunit alpha (Homo sapiens) (UniProt Q15858); experiment: Antagonist activity at human Nav1.7 expressed in HEK293T cells assessed as inhibition of VTD-induced tail current at 1 uM at holding potential of -100mV by whole cell patch clamp method relative to control; format: cell-based; conditions: HEK-293T
[18] = biological target: T1, Sodium channel protein type 2 subunit alpha; experiment: Ratio of IC50 for Nav1.2 (unknown origin) by cell based assay to IC50 for human Nav1.2 expressed in HEK293T cells assessed as inhibition of VTD-induced tail current
[19] = biological target: T1, Sodium channel protein type 2 subunit alpha; experiment: Ratio of IC50 for Nav1.2 (unknown origin) by cell based assay to IC50 for human Nav1.2 expressed in HEK293T cells assessed as inhibition of VTD-induced sustained current

Sequence of Sodium channel protein type 9 subunit alpha (Homo sapiens) (Q15858 whole entry, looked up): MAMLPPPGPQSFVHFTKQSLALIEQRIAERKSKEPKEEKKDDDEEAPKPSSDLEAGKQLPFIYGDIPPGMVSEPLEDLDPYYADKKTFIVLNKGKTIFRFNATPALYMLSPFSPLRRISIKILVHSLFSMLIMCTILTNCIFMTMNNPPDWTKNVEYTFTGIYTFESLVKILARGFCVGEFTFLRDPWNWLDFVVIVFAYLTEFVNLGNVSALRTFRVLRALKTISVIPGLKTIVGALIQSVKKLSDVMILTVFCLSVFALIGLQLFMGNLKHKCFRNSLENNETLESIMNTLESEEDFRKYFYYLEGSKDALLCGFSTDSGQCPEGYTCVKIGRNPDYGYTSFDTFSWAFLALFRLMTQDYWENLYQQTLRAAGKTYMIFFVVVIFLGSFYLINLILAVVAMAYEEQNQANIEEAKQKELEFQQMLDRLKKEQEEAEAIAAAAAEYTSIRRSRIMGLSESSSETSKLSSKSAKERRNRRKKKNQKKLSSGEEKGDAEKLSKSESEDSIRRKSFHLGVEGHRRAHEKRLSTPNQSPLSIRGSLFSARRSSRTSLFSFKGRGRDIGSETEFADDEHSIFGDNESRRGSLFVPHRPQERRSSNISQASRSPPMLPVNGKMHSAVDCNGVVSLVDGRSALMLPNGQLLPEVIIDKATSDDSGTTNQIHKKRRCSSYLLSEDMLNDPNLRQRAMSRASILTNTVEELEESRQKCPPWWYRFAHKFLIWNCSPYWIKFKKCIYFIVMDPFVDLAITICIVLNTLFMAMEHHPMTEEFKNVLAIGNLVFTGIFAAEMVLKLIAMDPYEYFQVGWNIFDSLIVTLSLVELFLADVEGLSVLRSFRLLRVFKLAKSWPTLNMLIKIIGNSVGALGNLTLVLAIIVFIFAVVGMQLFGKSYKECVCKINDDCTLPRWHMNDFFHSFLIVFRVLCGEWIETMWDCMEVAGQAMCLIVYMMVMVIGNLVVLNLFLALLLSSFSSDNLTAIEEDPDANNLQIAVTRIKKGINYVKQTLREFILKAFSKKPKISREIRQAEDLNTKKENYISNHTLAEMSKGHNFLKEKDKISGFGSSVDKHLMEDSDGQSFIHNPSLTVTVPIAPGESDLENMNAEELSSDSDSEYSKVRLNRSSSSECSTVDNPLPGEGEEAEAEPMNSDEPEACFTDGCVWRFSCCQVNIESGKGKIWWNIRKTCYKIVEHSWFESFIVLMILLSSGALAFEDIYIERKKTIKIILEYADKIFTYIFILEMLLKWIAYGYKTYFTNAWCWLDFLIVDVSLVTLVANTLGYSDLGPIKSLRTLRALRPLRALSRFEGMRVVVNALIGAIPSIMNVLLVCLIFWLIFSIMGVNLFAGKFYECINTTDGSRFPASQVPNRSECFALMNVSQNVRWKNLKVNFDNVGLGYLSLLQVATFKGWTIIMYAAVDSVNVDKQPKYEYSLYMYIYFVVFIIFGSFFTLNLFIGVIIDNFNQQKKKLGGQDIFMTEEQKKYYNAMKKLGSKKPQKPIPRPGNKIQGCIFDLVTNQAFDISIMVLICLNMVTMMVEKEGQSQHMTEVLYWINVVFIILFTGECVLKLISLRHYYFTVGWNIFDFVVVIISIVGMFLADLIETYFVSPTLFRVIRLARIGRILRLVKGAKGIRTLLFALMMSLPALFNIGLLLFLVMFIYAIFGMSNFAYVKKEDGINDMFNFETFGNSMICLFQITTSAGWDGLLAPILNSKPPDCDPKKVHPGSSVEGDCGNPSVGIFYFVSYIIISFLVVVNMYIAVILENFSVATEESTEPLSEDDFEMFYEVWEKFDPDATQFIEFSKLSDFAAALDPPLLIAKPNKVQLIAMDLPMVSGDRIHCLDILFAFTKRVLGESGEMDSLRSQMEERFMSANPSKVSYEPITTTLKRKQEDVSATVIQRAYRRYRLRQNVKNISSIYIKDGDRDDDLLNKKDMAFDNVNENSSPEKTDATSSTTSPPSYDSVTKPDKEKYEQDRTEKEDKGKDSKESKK
Sequence of Sodium channel protein type 8 subunit alpha (Homo sapiens) (Q9UQD0 whole entry, looked up): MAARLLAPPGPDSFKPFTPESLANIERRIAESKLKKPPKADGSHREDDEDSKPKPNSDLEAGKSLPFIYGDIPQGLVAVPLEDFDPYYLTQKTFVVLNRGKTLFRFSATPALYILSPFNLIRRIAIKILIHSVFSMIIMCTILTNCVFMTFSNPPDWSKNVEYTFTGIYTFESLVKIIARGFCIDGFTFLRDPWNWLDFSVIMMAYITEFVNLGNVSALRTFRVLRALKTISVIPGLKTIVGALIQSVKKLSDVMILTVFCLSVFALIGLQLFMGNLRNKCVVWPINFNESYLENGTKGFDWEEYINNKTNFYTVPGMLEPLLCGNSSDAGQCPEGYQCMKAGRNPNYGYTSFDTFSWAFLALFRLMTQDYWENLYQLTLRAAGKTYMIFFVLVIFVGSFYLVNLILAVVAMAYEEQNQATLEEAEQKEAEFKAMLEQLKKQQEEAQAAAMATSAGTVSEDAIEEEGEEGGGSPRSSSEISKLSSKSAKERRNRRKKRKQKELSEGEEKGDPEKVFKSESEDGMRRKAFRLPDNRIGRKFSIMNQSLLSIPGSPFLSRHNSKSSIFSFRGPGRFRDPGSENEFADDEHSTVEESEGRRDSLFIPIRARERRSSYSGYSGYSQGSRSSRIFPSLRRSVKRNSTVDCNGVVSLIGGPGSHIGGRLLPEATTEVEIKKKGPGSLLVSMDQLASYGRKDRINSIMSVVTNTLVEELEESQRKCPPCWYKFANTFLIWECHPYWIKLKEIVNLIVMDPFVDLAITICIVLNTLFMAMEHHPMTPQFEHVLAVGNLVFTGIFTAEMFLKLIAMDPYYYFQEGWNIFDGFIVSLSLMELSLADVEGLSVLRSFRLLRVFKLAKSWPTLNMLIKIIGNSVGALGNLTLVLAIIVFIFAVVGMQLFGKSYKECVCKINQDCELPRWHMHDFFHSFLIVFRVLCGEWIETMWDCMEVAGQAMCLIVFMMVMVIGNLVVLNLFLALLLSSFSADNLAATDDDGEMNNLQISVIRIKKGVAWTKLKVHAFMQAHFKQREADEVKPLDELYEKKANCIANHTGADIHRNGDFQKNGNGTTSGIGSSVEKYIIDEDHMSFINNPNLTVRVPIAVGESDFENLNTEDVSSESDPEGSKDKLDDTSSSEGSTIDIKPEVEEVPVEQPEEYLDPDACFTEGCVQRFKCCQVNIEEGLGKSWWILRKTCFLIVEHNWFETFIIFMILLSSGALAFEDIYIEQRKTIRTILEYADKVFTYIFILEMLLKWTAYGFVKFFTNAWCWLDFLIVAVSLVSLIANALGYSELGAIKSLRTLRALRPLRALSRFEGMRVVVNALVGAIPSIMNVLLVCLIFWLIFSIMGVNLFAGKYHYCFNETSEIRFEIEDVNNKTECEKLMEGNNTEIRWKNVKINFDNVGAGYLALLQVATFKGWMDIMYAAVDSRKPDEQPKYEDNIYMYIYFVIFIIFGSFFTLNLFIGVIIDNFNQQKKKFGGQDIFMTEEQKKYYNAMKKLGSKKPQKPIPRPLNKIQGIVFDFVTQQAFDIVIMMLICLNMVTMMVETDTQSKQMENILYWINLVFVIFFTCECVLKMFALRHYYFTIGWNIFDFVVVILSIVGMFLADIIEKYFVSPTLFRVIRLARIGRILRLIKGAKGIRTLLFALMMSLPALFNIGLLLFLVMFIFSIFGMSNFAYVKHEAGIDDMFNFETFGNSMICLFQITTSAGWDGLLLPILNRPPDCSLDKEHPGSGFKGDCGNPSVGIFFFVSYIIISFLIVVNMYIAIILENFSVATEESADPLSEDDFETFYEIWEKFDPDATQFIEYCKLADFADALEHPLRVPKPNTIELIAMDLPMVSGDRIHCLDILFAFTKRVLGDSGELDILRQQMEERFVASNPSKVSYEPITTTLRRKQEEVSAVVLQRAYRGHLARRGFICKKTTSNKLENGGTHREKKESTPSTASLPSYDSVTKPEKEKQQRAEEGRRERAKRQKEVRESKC

| Compound | inhibition [4] | inhibition [8] | IC50 [9] [nM] | inhibition [9] | EC50 [10] [nM] | IC50 [11] [nM] | inhibition [11] | further results |
| --- | --- | --- | --- | --- | --- | --- | --- | --- |
| NC1=N[C@H](O)[C@H]2[C@H]3O[C@]4(O)O[C@@H]([C@@H](O)[C@@]2(N1)[C@@H]4O)[C@]3(O)CO | Active |  |  |  |  |  |  | inhibition [1]: Active; inhibition [2]: Active; inhibition [3]: Active; inhibition [5]: Active; inhibition [6]: Active; inhibition [7]: Active |
| CCCCCCCCCC[C@@H]1NC(=N)N[C@]2(CCCO2)[C@@H]1C(=O)O | inactive | Active | 7.5 | Dose-dependent effect | 79 | 35 | Dose-dependent effect |  |
| CCCCCCCCCCC1NC(=N)NC2(CCCO2)C1C(=O)O (racemic) |  |  |  |  |  |  |  | inhibition [12]: Active; inhibition [13]: Active; inhibition [14]: Active; inhibition [15]: Active; inhibition [16]: Active; inhibition [17]: Active |
| CCCCCCCCCC[C@H]1C[C@@]2(CCCO2)NC(=N)N1 |  | Active | 2.1 | Dose-dependent effect | 120 | 2 | Dose-dependent effect | Ratio IC50 [18]: 60 |
| CCCCCCCCCC[C@@H]1C[C@]2(CCCO2)NC(=N)N1 |  |  | 0.45 | Dose-dependent effect | 12 | 0.28 | Dose-dependent effect | Ratio IC50 [19]: 43 |
| CCCCCCCCCC[C@H]1NC(=N)N[C@@]2(CCCO2)[C@H]1C(=O)O | inactive | Active | 26 | Dose-dependent effect | 5.3 | 170 | Dose-dependent effect |  |
